From PubChem BioAssay AID264 (DTP/NCI, 2004) come the findings set out here.

In this test the test system is nude mice, LX-1 lung xenograft intrarenal, tumor weight T/C. The experiment in a line: NCI In Vivo Anticancer Drug Screen. Data for tumor model Human Lung LX-1 Xenograft (intrarenal inoculation) in NU/NU Swiss (nude) mice. The note with it: endpoint: mean tumor weight change, higher = larger tumour. The method, boiled down: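 Tumor-bearing mice receive test compound or vehicle; tumor size is then measured in each group. The treated value is divided by the vehicle value to give T/C.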

The mark [1] stands for this setting: dose: 150.0 mg/kg/injection, schedule: Q04DX003 (sc), vehicle: suspension in saline.
The mark [2] stands for this setting: dose: 300.0 mg/kg/injection, schedule: Q04DX003 (sc), vehicle: suspension in saline.
[3] abbreviates: dose: 100.0 mg/kg/injection, schedule: Q04DX003 (sc), vehicle: saline with Tween-80.
Setting [4] is: dose: 200.0 mg/kg/injection, schedule: Q04DX003 (sc), vehicle: saline with Tween-80.
The mark [5] stands for this setting: dose: 400.0 mg/kg/injection, schedule: Q04DX003 (sc), vehicle: saline with Tween-80.
Where [6] appears, read: dose: 800.0 mg/kg/injection, schedule: Q04DX003 (sc), vehicle: saline with Tween-80.
Where [7] appears, read: dose: 300.0 mg/kg/injection, schedule: Q04DX003 (sc), vehicle: saline with Tween-80.
Where [8] appears, read: dose: 600.0 mg/kg/injection, schedule: Q04DX003 (sc), vehicle: saline with Tween-80.
The mark [9] stands for this setting: dose: 1200.0 mg/kg/injection, schedule: Q04DX003 (sc), vehicle: saline with Tween-80.
Where [10] appears, read: dose: 2400.0 mg/kg/injection, schedule: Q04DX003 (sc), vehicle: saline with Tween-80.
[11] abbreviates: dose: 100.0 mg/kg/injection, schedule: Q01DX010 (sc), vehicle: saline with Tween-80.
[12] abbreviates: dose: 50.0 mg/kg/injection, schedule: Q04DX003 (sc), vehicle: saline with Tween-80.
The mark [13] stands for this setting: dose: 300.0 mg/kg/injection, schedule: Q04DX003 (sc), vehicle: Klucel (hydroxypropylcellulose) (HPC).
Setting [14] is: dose: 600.0 mg/kg/injection, schedule: Q04DX003 (sc), vehicle: Klucel (hydroxypropylcellulose) (HPC).
Setting [15] is: dose: 1200.0 mg/kg/injection, schedule: Q04DX003 (sc), vehicle: Klucel (hydroxypropylcellulose) (HPC).
Where [16] appears, read: dose: 2400.0 mg/kg/injection, schedule: Q04DX003 (sc), vehicle: Klucel (hydroxypropylcellulose) (HPC).

Each structure is given as a SMILES string. Where “and” joins values, the source holds several entries; their conditions need not be identical. Equal values may be shown once. Records with an inconclusive call do not appear.

In the case of `COc1cccc2c1C(=N)c1c(O)c3c(c(O)c1C2=O)C[C@@](O)(C(C)=O)C[C@@H]3OC1CC(N)C(O)C(C)O1` (some centres undefined), the T/C was 46 % of control (dose: 24.0 mg/kg/injection, schedule: Q04DX003 (sc), vehicle: water); 10 % of control (dose: 48.0 mg/kg/injection, schedule: Q04DX003 (sc), vehicle: water); 23 % of control (dose: 96.0 mg/kg/injection, schedule: Q04DX003 (sc), vehicle: water).

As to `COC1CC(C)C(OC)C2=CC(=O)C=C(NC(=O)/C(C)=C/C=C\C(C)C(OC(N)=O)/C(C)=C\C(C)C1OC)C2=O` (centres undefined), the T/C reads like this: (dose: 12.5 mg/kg/injection, schedule: Q04DX003 (sc), vehicle: saline + alcohol) 35 % of control; (dose: 25.0 mg/kg/injection, schedule: Q04DX003 (sc), vehicle: saline + alcohol) 87 % of control; (dose: 50.0 mg/kg/injection, schedule: Q04DX003 (sc), vehicle: saline + alcohol) 73 % of control.

Consider `COC1C(/C=C/C(C)=O)OC2OC(C)(C)OC21` (centres undefined), for which the T/C is 52 % of control (dose: 75.0 mg/kg/injection, schedule: Q04DX003 (sc), vehicle: suspension in saline); 158 % of control under setting [1]; 123 % of control under setting [2].

For the molecule `C/C(=N\NC(N)=O)c1cccc(/C(C)=N/NC(N)=O)n1`, the T/C is, setting by setting: under setting [3], 83 % of control; under setting [4], 54 % of control; under setting [5], 71 % of control; under setting [6], 89 % of control.

As for `CCCCCC#CC1OC12CCCCC2` (centres undefined), the T/C by setting is: under setting [7], 97 % of control; under setting [8], 93 % of control; under setting [9], 60 % of control; under setting [10], 79 % of control.

Take `Cc1cc(NCCCCCCCCNc2cc(C)nc3cc(N(C)C)ccc23)c2ccc(N(C)C)cc2n1`: the T/C was 56 % of control (dose: 18.75 mg/kg/injection, schedule: Q01DX010 (sc), vehicle: saline with Tween-80); 34 % of control and 45 % of control (dose: 37.5 mg/kg/injection, schedule: Q01DX010 (sc), vehicle: saline with Tween-80); 42 % of control and 60 % of control (dose: 75.0 mg/kg/injection, schedule: Q04DX003 (sc), vehicle: distilled water + Tween-80 + alcohol); 61 % of control and 72 % of control (dose: 150.0 mg/kg/injection, schedule: Q04DX003 (sc), vehicle: distilled water + Tween-80 + alcohol); 33 % of control and 39 % of control (dose: 300.0 mg/kg/injection, schedule: Q04DX003 (sc), vehicle: distilled water + Tween-80 + alcohol); 25 % of control (dose: 600.0 mg/kg/injection, schedule: Q04DX003 (sc), vehicle: distilled water + Tween-80 + alcohol).

Take `Cc1cn(C2CC(F)C(CO)O2)c(=O)[nH]c1=O` (centres undefined): the T/C is, setting by setting: under setting [1], 54 % of control; under setting [2], 85 % of control; (dose: 600.0 mg/kg/injection, schedule: Q04DX003 (sc), vehicle: suspension in saline) 56 % of control; (dose: 1200.0 mg/kg/injection, schedule: Q04DX003 (sc), vehicle: suspension in saline) 37 % of control.

Take `O=CC=O`: the T/C runs as follows: (dose: 50.0 mg/kg/injection, schedule: Q01DX010 (sc), vehicle: saline with Tween-80) 82 % of control; under setting [11], 61 % of control.

As to `O=C1[C@H]2CCC[C@H]2[C@H]2CCC[C@@H]12`, the T/C runs as follows: under setting [4], 166 % of control; under setting [6], 120 % of control; (dose: 1600.0 mg/kg/injection, schedule: Q04DX003 (sc), vehicle: saline with Tween-80) 98 % of control.

Consider `CC1(CO)C(O)CCC2(C)C1CCC1CC3CC12CCC3(O)CO` (centres undefined), for which the T/C runs as follows: (dose: 6.25 mg/kg/injection, schedule: Q01DX010 (sc), vehicle: saline with Tween-80) 181 % of control; (dose: 12.5 mg/kg/injection, schedule: Q01DX010 (sc), vehicle: saline with Tween-80) 58 % of control; (dose: 25.0 mg/kg/injection, schedule: Q01DX010 (sc), vehicle: saline with Tween-80) 78 % of control; (dose: 600.0 mg/kg/injection, schedule: Q01DX010 (sc), vehicle: saline with Tween-80) 67 % of control.

Turning to `Nc1cc2c3c(cccc3c1)C(=O)N(CCN1CCCC1)C2=O`, the T/C is, setting by setting: under setting [12], 42 % of control; under setting [3], 79 % of control; under setting [4], 108 % of control; under setting [5], 46 % of control.

With `C1OC1CN1CCN(CC2CO2)CC1` (centres undefined), the T/C (dose: 16.0 mg/kg/injection, schedule: Q01DX010 (sc), vehicle: saline) is 27 % of control.

With `CCc1c(CC(=O)O)c2cc(C)ccc2n1Cc1ccc(Cl)cc1`, the T/C was 123 % of control under setting [13], 82 % of control under setting [14], 92 % of control under setting [15] and 50 % of control under setting [16].

`CC1C=NNC1=O` (centres undefined): the T/C is, setting by setting: under setting [11], 97 % of control; (dose: 200.0 mg/kg/injection, schedule: Q01DX010 (sc), vehicle: saline with Tween-80) 270 % of control; (dose: 400.0 mg/kg/injection, schedule: Q01DX010 (sc), vehicle: saline with Tween-80) 82 % of control.

Consider `CC(=O)Nc1ccc(S(=O)(=O)CO)cc1`, for which the T/C under setting [7] is 90 % of control, the T/C under setting [8] is 66 % of control, the T/C under setting [9] was 96 % of control and the T/C under setting [10] was 67 % of control.

With `CCSC(=O)N1c2ccc(OC)cc2C=CC1C#N` (centres undefined), the T/C is, setting by setting: under setting [10], 32 % of control (2×) and 40 % of control; (dose: 4800.0 mg/kg/injection, schedule: Q04DX003 (sc), vehicle: saline with Tween-80) 16 % of control and 17 % of control and 23 % of control.

With `O=C(Nc1cccc2c(OC(=O)C(Cl)Cl)c(N=Nc3ccc(S(=O)(=O)Nc4nccs4)cc3)cc(N=Nc3ccc(S(=O)(=O)Nc4nccs4)cc3)c12)C(Cl)Cl` (tested in a mixture with another compound), the T/C is 104 % of control (dose: 25.0 mg/kg/injection, schedule: Q04DX003 (sc), vehicle: saline with Tween-80); 92 % of control under setting [12]; 116 % of control under setting [3]; 90 % of control under setting [7]; 120 % of control under setting [8]; 83 % of control under setting [9]. The T/C under setting [10] was 120 % of control.

With `CN(C)CCOc1ccc2c(c1)C/C(=C/c1ncc([N+](=O)[O-])n1C)C2=O`, the T/C by setting is: under setting [7], 93 % of control; under setting [8], 82 % of control; under setting [9], 44 % of control; under setting [10], 61 % of control.

As for `O=S(=O)(SC(S(=O)(=O)c1ccccc1)S(=O)(=O)c1ccccc1)c1ccccc1`, the T/C by setting is: (dose: 100.0 mg/kg/injection, schedule: Q04DX003 (sc), vehicle: Klucel (hydroxypropylcellulose) (HPC)) 115 % of control; (dose: 400.0 mg/kg/injection, schedule: Q04DX003 (sc), vehicle: Klucel (hydroxypropylcellulose) (HPC)) 69 % of control; under setting [14], 63 % of control; (dose: 800.0 mg/kg/injection, schedule: Q04DX003 (sc), vehicle: Klucel (hydroxypropylcellulose) (HPC)) 77 % of control; under setting [15], 65 % of control.

`C#C[C@]1(O)CC[C@H]2[C@@H]3CCc4cc(O)ccc4[C@H]3CC[C@@]21C`: the T/C by setting is: under setting [13], 70 % of control; under setting [14], 102 % of control; under setting [15], 50 % of control; under setting [16], 55 % of control.

Consider `O=CC(NC(=O)N(CCCl)N=O)C(O)C(O)C(O)CO` (centres undefined), for which the T/C is, setting by setting: (dose: 1.5 mg/kg/injection, schedule: Q01DX010 (sc), vehicle: Klucel (hydroxypropylcellulose) (HPC)) 208 % of control; (dose: 6.0 mg/kg/injection, schedule: Q01DX010 (sc), vehicle: Klucel (hydroxypropylcellulose) (HPC)) 20 % of control and 45 % of control; (dose: 12.0 mg/kg/injection, schedule: Q01DX010 (sc), vehicle: Klucel (hydroxypropylcellulose) (HPC)) -23 % of control.

Regarding `CCCC(=O)O`, the T/C is, setting by setting: (dose: 100.0 mg/kg/injection, schedule: Q01DX010 (sc), vehicle: saline) 103 % of control; (dose: 200.0 mg/kg/injection, schedule: Q01DX010 (sc), vehicle: saline) 77 % of control; (dose: 400.0 mg/kg/injection, schedule: Q01DX010 (sc), vehicle: saline) 71 % of control.

Turning to `O=c1cc(-c2ccccc2)[nH]c2c1CCCC2`, the T/C by setting is: under setting [7], 114 % of control; under setting [8], 113 % of control; under setting [9], 113 % of control; under setting [10], 106 % of control.
